Reference: PubChem BioAssay AID1963826 (Molecular Pharmacology Branch, DTP, NCI, 2024)
pIC50: −log10 of the molar value.

Tested on: 926638-142-R-J1-PDC complex spheroid viability
Assay: Anticancer human tumor 926638-142-R-J1-PDC patient-derived endometrial carcinoma cell line growth inhibition [POLQ]
Conditions: for pIC50: curve of first compound; for viability, T/C: stronger effect = lower value
Protocol: Multicellular complex tumor spheroid response to Polymerase (POL) inhibitors (novobiocin, ART-558, RP6685) in combination with a variety of drugs and investigational agents in selected tumor cell lines
The POL inhibitors (novobiocin, ART-558, and RP6685) were evaluated both individually and in combination with standard of care and investigational anticancer small molecules within a complex spheroid model of solid tumors. . Complex spheroids include a stromal component modeled by human endothelial cells (HUVEC) and fibroblasts modeled by human mesenchymal stem cells (MSCs). The concentration ranges selected for each drug and investigational agent were based upon clinically achievable concentrations if the clinical Cmax of the agent was known.
Compounds. The drugs and investigational agents: novobiocin (NSC847541), ART-558 (NSC835418), RP-6685 (NSC848927), peposertib (NSC802822), ceralasertib (NSC780249), elimusertib (NSC800525), camonsertib (NSC841442), AZD-1390 (NSC803789), olaparib (NSC753686), talazoparib (NSC767125), rucaparib (NSC756644), sotorasib (NSC818433), MRTX-1133 (NSC836407), SN-38 (NSC673596), topotecan (NSC609699), epotoside (NSC141540), doxorubicin (NSC123127), gemcitabine (NSC613327), 5-fluorouracil (NSC19893), paclitaxel (NSC125973), vemurafenib (NSC761431), MSA-2 (NSC828583), SN-011 (NSC837082), adavosertib (NSC754352), prexasertib (NSC758257), carboplatin (NSC241240) and oxaliplatin (NSC266046), were obtained from the National Cancer Institute (NCI) Developmental Therapeutics Program Chemical Repository (21). The FDA-approved anticancer drug set is available from the Developmental Therapeutics Program at https://dtp.cancer.gov/organization/dscb/obtaining/. […] The stock solutions were prepared in dimethyl sulfoxide (DMSO, Sigma-Aldrich, St. Louis, MO, cat. D2650), except for the platinum compounds which were prepared in saline (Quality Biological, Gaithersburg, MD, cat. 114-055-101), at 800-fold the tested concentration and stored at -70 degrees C prior to their use. All drugs and investigational agents were tested over a range starting from a high concentration at or near the clinical Cmax and decreasing in half-log increments. If the clinical Cmax for an agent had not been determined, the highest concentration tested was 10 microM, except for SN-38, which was tested at a high concentration of 1 microM.
Cell Culture. All cells were maintained in an incubator at 37 degrees C and 5% CO2 with 95% humidity. The PDC lines were cultured according to standard operating procedures established by the NCI PDMR (https://pdmr.cancer.gov). Table 3 of the manuscript, lists the cell lines along with the number of the three cell types plated to form the mct-spheroids and media for tumor cell growth. After thawing, all PDC lines, except 997537-175-T-J1-PDC and 415267-285-R-J2-PDC, were cultured in Matrigel-coated flasks prepared with a working solution of 1X Ham's F-12 nutrient mix, without supplementation (Thermo Fisher Scientific, cat. 11765054), 100 U/mL penicillin-streptomycin (Thermo Fisher Scientific, cat. 15140122), and 2.5% Matrigel (Corning Inc., Corning, NY, cat. 354248) for the first three passages. The two PDC lines 997537-175-T-J1-PDC and 415267-285-R-J2-PDC were cultured on uncoated flasks. The 857933-349-R-J2-PDC line was cultured in 6C/Colon 1B media containing advanced DMEM/F-12 (Thermo Fisher Scientific, cat. 12634028), 10 mM HEPES (Thermo Fisher Scientific, cat. 15630080), 1X GlutaMAX supplement (Thermo Fisher Scientific, cat. 35050061), 0.1 mg/mL primocin (InvivoGen, San Diego, CA, cat. ant-pm-2), 10% defined fetal bovine serum, heat inactivated (HyClone Laboratories Inc., Logan, UT, cat. SH30070.03HI), 50% L-WRN conditioned media (ATCC, cat. CRL-3276), 1.25 mM N-Acetyl-L-cysteine (Sigma-Aldrich, cat. A9165), 10 mM nicotinamide (Sigma-Aldrich, cat. N0636), 1X B-27 supplement (Thermo Fisher Scientific, cat. 17504044), 1X N-2 supplement (Thermo Fisher Scientific, cat. […]

[1] = second compound 0.0316 µM, first compound 0.0316 µM
[2] = second compound 0.0316 µM, first compound 0.1 µM
[3] = second compound 0.0316 µM, first compound 0.316 µM
[4] = second compound 0.0316 µM, first compound 1 µM
[5] = second compound 0.0316 µM, first compound 3.16 µM
[6] = second compound 0.0316 µM, first compound 10 µM
[7] = second compound 0.1 µM, first compound 0.0316 µM
[8] = second compound 0.1 µM, first compound 0.1 µM
[9] = second compound 0.1 µM, first compound 0.316 µM
[10] = second compound 0.1 µM, first compound 1 µM
[11] = second compound 0.1 µM, first compound 3.16 µM
[12] = second compound 0.1 µM, first compound 10 µM
[13] = second compound 0.316 µM, first compound 0.0316 µM
[14] = second compound 0.316 µM, first compound 0.1 µM
[15] = second compound 0.316 µM, first compound 0.316 µM
[16] = second compound 0.316 µM, first compound 1 µM
[17] = second compound 0.316 µM, first compound 3.16 µM
[18] = second compound 0.316 µM, first compound 10 µM
[19] = second compound 1 µM, first compound 0.0316 µM
[20] = second compound 1 µM, first compound 0.1 µM
[21] = second compound 1 µM, first compound 0.316 µM
[22] = second compound 1 µM, first compound 1 µM
[23] = second compound 1 µM, first compound 3.16 µM
[24] = second compound 1 µM, first compound 10 µM
[25] = second compound 3.16 µM, first compound 0.0316 µM
[26] = second compound 3.16 µM, first compound 0.1 µM
[27] = second compound 3.16 µM, first compound 0.316 µM
[28] = second compound 3.16 µM, first compound 1 µM
[29] = second compound 3.16 µM, first compound 3.16 µM
[30] = second compound 3.16 µM, first compound 10 µM
[31] = second compound 10 µM, first compound 0.0316 µM
[32] = second compound 10 µM, first compound 0.1 µM
[33] = second compound 10 µM, first compound 0.316 µM
[34] = second compound 10 µM, first compound 1 µM
[35] = second compound 10 µM, first compound 3.16 µM
[36] = second compound 10 µM, first compound 10 µM
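Note: spheroids exposed to drugs for one week before readout.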
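Throughout, for viability, T/C: percent viability relative to DMSO vehicle control wells set as 100%.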

Compound `COc1ccc([C@@H](O)c2cc(-c3ncnc4cc(N5CCOCC5)ccc34)c(F)cc2Cl)nn1` + Cc1cccc(N(C)C(=O)C2C(O)CCN2c2nc(C)cc(C(F)(F)F)c2C#N)c1 has a pIC50 (second compound 0.0316 µM) of 6.34, a pIC50 (second compound 0.1 µM) of 6.26 and a pIC50 (second compound 0.316 µM) of 6.40. For the same compound, the pIC50 (second compound 1 µM) was 6.31, the pIC50 (second compound 3.16 µM) was 6.32 and the pIC50 (second compound 10 µM) was 6.38. The viability, T/C [1] was 76.7%, the viability, T/C [2] was 93.2% and the viability, T/C [3] was 58.1%. The viability, T/C [4] was 26.9%, the viability, T/C [5] was 12.9% and the viability, T/C [6] was 7.35%. For the same compound, the viability, T/C [7] was 99%, the viability, T/C [8] was 80.7% and the viability, T/C [9] was 74.2%. The viability, T/C [10] was 24.3%, the viability, T/C [11] was 11.5% and the viability, T/C [12] was 9.24%. For the same compound, the viability, T/C [13] was 77.3%, the viability, T/C [14] was 71.1% and the viability, T/C [15] was 57.2%. It also gave a viability, T/C [16] of 24.6%, a viability, T/C [17] of 13.3% and a viability, T/C [18] of 7.22%. For the same compound, the viability, T/C [19] was 107%, the viability, T/C [20] was 89.7% and the viability, T/C [21] was 65.9%. It also gave a viability, T/C [22] of 26.8%, a viability, T/C [23] of 14.7% and a viability, T/C [24] of 9.12%. The viability, T/C [25] was 83.5%, the viability, T/C [26] was 88.1% and the viability, T/C [27] was 57.8%. The viability, T/C [28] was 32.7%, the viability, T/C [29] was 12.2% and the viability, T/C [30] was 9.15%. It also gave a viability, T/C [31] of 76.5%, a viability, T/C [32] of 94% and a viability, T/C [33] of 56%. It also gave a viability, T/C [34] of 24%, a viability, T/C [35] of 12.9% and a viability, T/C [36] of 9.62%.

In the case of `O=C(c1cc(Cc2n[nH]c(=O)c3ccccc23)ccc1F)N1CCN(C(=O)C2CC2)CC1` + Nc1ccc(C#CCN(C(=O)Cc2ncc(C(F)(F)F)cc2C(F)(F)F)c2ccc(F)cc2)nn1, the pIC50 (second compound 0.0316 µM) was under 5.00, the pIC50 (second compound 0.1 µM) was under 5.00 and the pIC50 (second compound 0.316 µM) was under 5.00. The pIC50 (second compound 1 µM) was under 5.00, the pIC50 (second compound 3.16 µM) was under 5.00 and the pIC50 (second compound 10 µM) was under 5.00. The viability, T/C [1] was 82.5%, the viability, T/C [2] was 96.2% and the viability, T/C [3] was 84.5%. It also gave a viability, T/C [4] of 94.9%, a viability, T/C [5] of 81.9% and a viability, T/C [6] of 80.4%. For the same compound, the viability, T/C [7] was 101%, the viability, T/C [8] was 110% and the viability, T/C [9] was 86.5%. The viability, T/C [10] was 88.2%, the viability, T/C [11] was 80.7% and the viability, T/C [12] was 73.8%. The viability, T/C [13] was 100%, the viability, T/C [14] was 93.8% and the viability, T/C [15] was 89.7%. The viability, T/C [16] was 99%, the viability, T/C [17] was 82.8% and the viability, T/C [18] was 77.8%. It also gave a viability, T/C [19] of 97.5%, a viability, T/C [20] of 90.6% and a viability, T/C [21] of 85%. For the same compound, the viability, T/C [22] was 83.2%, the viability, T/C [23] was 82% and the viability, T/C [24] was 69.3%. It also gave a viability, T/C [25] of 86.3%, a viability, T/C [26] of 89.9% and a viability, T/C [27] of 91.4%. For the same compound, the viability, T/C [28] was 87.6%, the viability, T/C [29] was 98.3% and the viability, T/C [30] was 81.6%. For the same compound, the viability, T/C [31] was 87.6%, the viability, T/C [32] was 85.8% and the viability, T/C [33] was 80.1%. The viability, T/C [34] was 73.7%, the viability, T/C [35] was 81.5% and the viability, T/C [36] was 66.1%.
